The subject of data set [1] is mouse 3T3 fibroblast. Put plainly: XTT assay (cytotoxicity test). Type of data set: cell-based. The settings on record: 16 hours culture, T/C %. How it is done: (§1) A reporter plasmid was prepared according to the method of R. I. Scheinman et al. [Mol. Cell. Biol., Vol. 15, Pages 943-953 (1995)]. That is, a plasmid p(TRE)5TK-Luc was constructed by connecting a promoter of thymidine kinase (TK) at an upstream site of luciferase (Luc) gene which is a reporter gene and a 5-times repeated TRE sequence at a further upstream site thereof. The plasmid was co-transfected simultaneously with p3′SS plasmid (prepared by Stratagene Co.) by the electrotranspolation method onto mouse 3T3 fibroblast (ATCC: CCL-163) cultured in a Dulbecco's modified Eagle's medium (DMEM) containing 10% fetal calf serum (FCS). Then the cells were cultured in DMEM containing 10% FCS and 100 μg/ml of Hygromycin B. Using the expression of Hygromycin-resistant gene contained in p3′SS as an indicator, cell strains of the transfectant into which the objective plasmid had been introduced stably were selected. Furthermore in the test mentioned below, cell strains showing expression of Luc gene under stimulation of 12-O-tetradecanoylphorbol 13-acetate (TPA, prepared by Sigma Co.) were used, and DMEM containing 10% FCS and 100 μg/ml of Hygromycin B was used for the culture of cells.
The same culture plate as above was prepared, and test compound and TPA were added under the same conditions as above, after which a culture was carried out for 16 hours. The end of cluture, XTT reagent prepared according to the method of D. A. Scudievo [Cancer Res., Vol. 48, Pages 4827-4833 (1988)] was added and made to react for a prescribed period of time. Then, the amount of formazan formed by alive cells was analyzed by measuring absorbance at 450 nm using a micro plate reader. In this test, a decrease in absorbance is observed when the test compounds show a cytotoxicitic or a growth inhibitory activity. Cell viability (T/C %) was determined according to the following formula:
Cell Viability Rate (T/C %)=(Absorbance of well to which compound is added/Absorbance of well to which the compound was not added)×100
(§2) The compounds of Example No. 1, 6(3), 6(5), 13, 15, 17, 18(1), 18(8), 20(1) and 20(2) were converted to sodium salts according to the method of Example 42, and then used for the assay.

The test system of data set [2] is type II collagen-induced arthritis. Put plainly: Type II collagen-induced arthritis in mice (arthritis score, joint-bone destruction score). Type of data set: in vivo, DBA/1J mice. To be noted: 100 mg/kg orally once every day from day 21 to day 35, mean. The protocol: The compound of Example 20 (1) was tested for the effect on type II collagen-induced arthritis, using 8 weeks old, male DBA/1J mice (Japan Charles River). Emulsion was prepared by mixing an equal volume of bovine type II collagen (prepared by Koken) in 0.1N acetic acid (2 mg/ml) and Freund's complete adjuvant (prepared by Nacalai Tesque). Arthritis was induced by intradermal injection of 0.2 ml (the quantity of antigen: 200 μg/head) of the emulsion into the skin of the tail root twice (day 0 and day 21). The test compound was suspended in 0.5% solution of methyl cellulose, and 100 mg/kg was orally administered once every day from day 21 to day 35. […] Severity of the arthritis was scored 0: no change, 1: only one or two swelling of the joints or slight swelling of the ankle or toes, 2: swelling and/or rubor in further joints, 3: extensive swelling of whole paw, and the maximum possible score for arthritis was 12 points. As to the severity of destruction of joints and bones, X ray photographs of four paws were taken (Softex), and severity of destruction in the second to fifth articulationes interphalangeae, first to fifth articulationes metacarpophalangeae and metatarsophalangeae, and calcaneus was scored by 0 or 1 in accordance with presence or absence of destruction, and the severity of destruction in the carpus and tarsal was scored by 0 to 3. […]

Data set [3] relates to transcription factor AP-1. Put plainly: Luciferase assay (TPA-stimulated p(TRE)5TK-Luc reporter transfectant). To be noted: Mus musculus, TPA stimulation 16 hours, Luc activity, read-out: Inhibition rate (%); for inhibition at 30 µg/mL: 30 μg/ml test compound; for inhibition at 100 µg/mL: 100 μg/ml test compound. Type of data set: cell-based. The protocol:
as §1
The cells prepared above were suspended in culture medium, and plated 96 well-plate at 1×10^4 cells/0.1 ml. After culturing it overnight, 50 μl of test compounds solution and 40 μl of culture medium were added, and incubated. After one hour 10 μl of 200 ng/ml TPA solution was added and the culture was continued for an additional 16 hours to stimulate the cells. The end of cluture, the cells were recovered, and cell lysis solutions were obtained. The Luc activity of the cell lysates was measured with a chemilluminescent detection kit (Pica Gene; manufactured by Toyo Ink Co.). The suppressive effect of each test compound could be assessed as a decrease of Luc activity, and the inhibition rate (%) was calculated according to the following formula:
Inhibition rate (%)=(1−Luc activity of cells to which the compound is added/Luc activity of cells to which the compound is not added)×100
as §2

In the case of `CC(C)c1ccc(OC2CCC3(CC2)SC(C)(C)[C@H](C(=O)O)N3C(=O)c2ccccc2)cc1` (stereo partly drawn) [20 (1), (3S)-4-Benzoyl-8-(4-isopropylphenoxy)-2,2-dimethyl-1-thia-4-azaspiro[4.5]decane-3-carboxylic acid], in data set [1] (30 μg/ml test compound), the “Cell viability (%)” value was 98%. In data set [2] (X ray of four paws, control 20 ± 3), this compound showed a Joint-bone destruction score of 14 ± 3. Also, the Arthritis score in data set [2] (maximum score 12, control 10 ± 1) is listed as 8 ± 1. The inhibition at 30 µg/mL in data set [3] was 72%.
On to `CC(C)c1ccc(OC2CCC3(CC2)SC[C@@H](C(=O)O)N3C(=O)c2ccc[nH]2)cc1` (stereo partly drawn) [Example 40, (3R)-8-(4-isopropylphenoxy)-4-(1H-2-pyrrolylcarbonyl)-1-thia-4-azaspiro[4.5]decane-3-carboxylic acid], for which the “Cell viability (%)” value in data set [1] (100 μg/ml test compound) turned out to be 108%. Also, the inhibition at 100 µg/mL in data set [3] was 91%.
On to `COc1ccc(C(=O)N2[C@H](C(=O)O)CSC23CCC(Oc2ccc(C(C)C)cc2)CC3)cc1` (stereo partly drawn) [41 (5), (3R)-8-(4-Isopropylphenoxy)-4-(4-methoxybenzoyl)-1-thia-4-azaspiro[4.5]decane-3-carboxylic acid], for which the “Cell viability (%)” value in data set [1] (100 μg/ml test compound) came out at 90%. Also, the inhibition at 100 µg/mL in data set [3] worked out at 94%.
For `CC(C)c1ccc(OC2CCC3(CC2)SC[C@@H](C(=O)O)N3C(=O)c2cnc3ccccc3c2)cc1` (stereo partly drawn) [41 (2), (3R)-8-(4-Isopropylphenoxy)-4-(3-quinolylcarbonyl)-1-thia-4-azaspiro[4.5]decane-3-carboxylic acid] the same measures were 71% and 94%.
In the case of `CC(C)CC=C1CCC2(CC1)SC(C)(C)[C@@H](C(=O)O)N2C(=O)CCC(C)C` (stereo partly drawn) [Example 44, (3R)-2,2-dimethyl-8-(3-methylbutylidene)-4-(4-methylpentanoyl)-1-thia-4-azaspiro[4.5]decane-3-carboxylic acid], the “Cell viability (%)” value in data set [1] (30 μg/ml test compound) was 75%. For the same compound, in data set [3], the inhibition at 30 µg/mL was determined as 62%.
With `CCOC(=O)[C@@H]1CSC2(CCC(Oc3ccc(C(C)C)cc3)CC2)N1C(=O)c1ccccc1` (stereo partly drawn) [Example 21, ethyl (3R)-4-benzoyl-8-(4-isopropylphenoxy)-1-thia-4-azaspiro[4.5]decane-3-carboxylate], the “Cell viability (%)” value in data set [1] (30 μg/ml test compound) is reported as 74%. Also, in data set [3], the inhibition at 30 µg/mL was determined as 28%.
As for `CCN(CC)C(=O)c1ccc(C(=O)N2[C@H](C(=O)O)CSC23CCC(Oc2ccc(C(C)C)cc2)CC3)cc1` (stereo partly drawn) [41 (6), (3R)-4-{4-[(Diethylamino)carbonyl]benzoyl}-8-(4-isopropylphenoxy)-1-thia-4-azaspiro[4.5]decane-3-carboxylic acid], the “Cell viability (%)” value in data set [1] (100 μg/ml test compound) is 97%. The inhibition at 100 µg/mL in data set [3] was determined as 49%.
For the compound `Cc1nc(C(=O)N2[C@H](C(=O)O)CSC23CCC(Oc2ccc(C(C)C)cc2)CC3)cs1` (stereo partly drawn) [41 (3), (3R)-8-(4-Isopropylphenoxy)-4-[(2-methyl-1,3-thiazol-4-yl)carbonyl]-1-thia-4-azaspiro[4.5]decane-3-carboxylic acid], the “Cell viability (%)” value in data set [1] (100 μg/ml test compound) amounted to 97%. Besides, the inhibition at 100 µg/mL in data set [3] is 80%.
Consider `CC(C)c1ccc(OC2CCC3(CC2)SC[C@@H](C(=O)O)N3C(=O)c2cnccn2)cc1` (stereo partly drawn) [41 (4), (3R)-8-(4-Isopropylphenoxy)-4-(2-pyrazinylcarbonyl)-1-thia-4-azaspiro[4.5]decane-3-carboxylic acid], for which the “Cell viability (%)” value in data set [1] (100 μg/ml test compound) was found to be 82%. Moreover, the inhibition at 100 µg/mL in data set [3] worked out at 96%.
Consider `CC(C)c1ccc(OC2CCC3(CC2)SC(C)(C)[C@@H](C(=O)O)N3C(=O)c2ccccc2)cc1` (stereo partly drawn) [20 (2), (3R)-4-Benzoyl-8-(4-isopropylphenoxy)-2,2-dimethyl-1-thia-4-azaspiro[4.5]decane-3-carboxylic acid], for which the “Cell viability (%)” value in data set [1] (100 μg/ml test compound) amounted to 92%. The inhibition at 100 µg/mL in data set [3] turned out to be 93%.
`CC(C)c1ccc(OC2CCC3(CC2)SC[C@@H](C(=O)NCCC(=O)O)N3C(=O)c2ccccc2)cc1` (stereo partly drawn) [Example 29, 3-({[(3R)-4-benzoyl-8-(4-isopropylphenoxy)-1-thia-4-azaspiro[4.5]-decan-3-yl]carbonyl}amino)-propionic acid]: the “Cell viability (%)” value in data set [1] (100 μg/ml test compound) was determined as 110%. The inhibition at 100 µg/mL in data set [3] stood at 92%.
Consider `CC(C)CC=C1CCC2(CC1)SC(CC(=O)OC(C)C)C(=O)N2CC(=O)O` (centres unmarked) [Example 47, 2-[2-(2-isopropoxy-2-oxoethyl)-8-(3-methylbutylidene)-3-oxo-1-thia-4-azaspiro[4.5]decan-4-yl]-acetic acid], for which, in data set [1] (30 μg/ml test compound), the “Cell viability (%)” value amounted to 83%. For the same compound, the inhibition at 30 µg/mL in data set [3] was determined as 47%.

By inhibition is commonly meant the relative decrease from the control value, in per cent.

These data come from US6384065B1, “Spiro compounds or salts thereof and preventives/remedies for autoimmune diseases and AP-1 inhibitors containing the same” (Toyama Chemical Co., Ltd., priority 1998, dated 2002).
